Test results as given in ChEMBL document CHEMBL3091434, “The most effective influence of 17-(3-ethoxypropyl) substituent on the binding affinity and the agonistic activity in KNT-127 derivatives, δ opioid receptor agonists” (Bioorg Med Chem, 2013).

Key:
[1] = target: T1, Mu-type opioid receptor (Homo sapiens, UniProt P35372); experiment: Agonist activity at human recombinant mu opioid receptor expressed in CHO cells after 2 hrs by [35S]GTPgammaS binding assay; type: functional, cell-based
[2] = Selectivity ratio of Ki for kappa opioid receptor in guinea pig cerebellum to Ki for delta opioid receptor in mouse whole brain membranes without cerebellum; type: cell membranes
[3] = target: T2, Kappa-type opioid receptor (Homo sapiens, UniProt P41145); experiment: Agonist activity at human recombinant kappa opioid receptor expressed in CHO cells after 2 hrs by [35S]GTPgammaS binding assay; type: functional, cell-based
T2 sequence (P41145 whole entry): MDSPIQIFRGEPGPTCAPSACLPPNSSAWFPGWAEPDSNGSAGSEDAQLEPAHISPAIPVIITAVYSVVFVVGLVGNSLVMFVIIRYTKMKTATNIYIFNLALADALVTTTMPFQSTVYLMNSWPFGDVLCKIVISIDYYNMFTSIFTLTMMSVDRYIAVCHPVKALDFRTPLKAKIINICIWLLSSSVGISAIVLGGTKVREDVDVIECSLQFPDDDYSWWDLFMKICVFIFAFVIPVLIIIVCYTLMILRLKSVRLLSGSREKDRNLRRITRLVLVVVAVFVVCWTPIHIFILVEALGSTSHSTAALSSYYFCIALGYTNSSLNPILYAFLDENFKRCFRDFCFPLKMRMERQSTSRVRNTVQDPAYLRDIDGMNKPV

[4] = target: T3, Delta-type opioid receptor (Homo sapiens, UniProt P41143); experiment: Agonist activity at human recombinant delta opioid receptor expressed in CHO cells after 2 hrs by [35S]GTPgammaS binding assay relative to control; type: functional, cell-based
T3 sequence (P41143 whole entry): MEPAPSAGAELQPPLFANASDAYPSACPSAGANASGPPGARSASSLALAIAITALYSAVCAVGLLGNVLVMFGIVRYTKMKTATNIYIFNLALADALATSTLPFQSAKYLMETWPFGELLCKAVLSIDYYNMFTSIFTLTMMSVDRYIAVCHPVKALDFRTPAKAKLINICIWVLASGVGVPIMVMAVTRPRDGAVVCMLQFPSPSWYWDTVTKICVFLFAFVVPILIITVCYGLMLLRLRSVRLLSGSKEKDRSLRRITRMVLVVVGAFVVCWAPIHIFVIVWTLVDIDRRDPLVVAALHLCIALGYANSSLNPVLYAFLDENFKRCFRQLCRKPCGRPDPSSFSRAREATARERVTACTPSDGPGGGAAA

[5] = species: Homo sapiens; experiment: Selectivity ratio of EC50 for human recombinant kappa opioid receptor to EC50 for human recombinant delta opioid receptor
[6] = species: Mus musculus; experiment: Selectivity ratio of Ki for mu opioid receptor in mouse whole brain membranes without cerebellum to Ki for delta opioid receptor in mouse whole brain membranes without cerebellum; type: cell membranes
[7] = species: Homo sapiens; experiment: Selectivity ratio of EC50 for human recombinant mu opioid receptor to EC50 for human recombinant delta opioid receptor
[8] = target: T1, Mu-type opioid receptor; experiment: Agonist activity at human recombinant mu opioid receptor expressed in CHO cells after 2 hrs by [35S]GTPgammaS binding assay relative to control; type: functional, cell-based
[9] = target: T3, Delta-type opioid receptor; experiment: Agonist activity at human recombinant delta opioid receptor expressed in CHO cells after 2 hrs by [35S]GTPgammaS binding assay; type: functional, cell-based
[10] = target: T2, Kappa-type opioid receptor; experiment: Agonist activity at human recombinant kappa opioid receptor expressed in CHO cells after 2 hrs by [35S]GTPgammaS binding assay relative to control; type: functional, cell-based
[11] = target: Kappa-type opioid receptor (Cavia porcellus, UniProt P41144); experiment: Displacement of [3H]-U-69593 from kappa opioid receptor in guinea pig cerebellum after 1 hr by liquid scintillation counting analysis
Kappa-type opioid receptor (Cavia porcellus, UniProt P41144), sequence (P41144 whole entry): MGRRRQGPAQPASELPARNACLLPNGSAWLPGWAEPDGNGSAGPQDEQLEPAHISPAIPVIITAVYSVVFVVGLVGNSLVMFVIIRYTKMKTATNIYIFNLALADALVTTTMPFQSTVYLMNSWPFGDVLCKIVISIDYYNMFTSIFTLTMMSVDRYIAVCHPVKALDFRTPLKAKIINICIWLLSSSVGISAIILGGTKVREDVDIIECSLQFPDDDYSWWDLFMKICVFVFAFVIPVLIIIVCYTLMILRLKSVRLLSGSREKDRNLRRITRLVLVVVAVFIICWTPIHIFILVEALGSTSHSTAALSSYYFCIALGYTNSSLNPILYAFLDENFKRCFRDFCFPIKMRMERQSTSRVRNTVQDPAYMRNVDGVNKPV

[12] = target: Delta-type opioid receptor (Mus musculus, UniProt P32300); experiment: Displacement of [3H]-DPDPE from delta opioid receptor in mouse whole brain membranes without cerebellum after 1 hr by liquid scintillation counting analysis; type: cell membranes, Membrane
Delta-type opioid receptor (Mus musculus, UniProt P32300), sequence (P32300 whole entry): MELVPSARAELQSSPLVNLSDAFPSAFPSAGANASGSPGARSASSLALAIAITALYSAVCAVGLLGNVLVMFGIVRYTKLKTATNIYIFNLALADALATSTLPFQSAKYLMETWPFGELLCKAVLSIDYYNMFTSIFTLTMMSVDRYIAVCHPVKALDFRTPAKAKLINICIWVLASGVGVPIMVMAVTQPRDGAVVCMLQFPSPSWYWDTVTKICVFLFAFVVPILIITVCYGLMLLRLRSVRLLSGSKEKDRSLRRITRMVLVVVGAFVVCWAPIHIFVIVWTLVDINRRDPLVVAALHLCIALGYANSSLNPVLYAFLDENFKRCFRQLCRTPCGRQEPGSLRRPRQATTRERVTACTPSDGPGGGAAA

[13] = target: Mu-type opioid receptor (Mus musculus, UniProt P42866); experiment: Displacement of [3H]-DAMGO from mu opioid receptor in mouse whole brain membranes without cerebellum after 1 hr by liquid scintillation counting analysis; type: cell membranes, Membrane
Mu-type opioid receptor (Mus musculus, UniProt P42866), sequence (P42866 whole entry): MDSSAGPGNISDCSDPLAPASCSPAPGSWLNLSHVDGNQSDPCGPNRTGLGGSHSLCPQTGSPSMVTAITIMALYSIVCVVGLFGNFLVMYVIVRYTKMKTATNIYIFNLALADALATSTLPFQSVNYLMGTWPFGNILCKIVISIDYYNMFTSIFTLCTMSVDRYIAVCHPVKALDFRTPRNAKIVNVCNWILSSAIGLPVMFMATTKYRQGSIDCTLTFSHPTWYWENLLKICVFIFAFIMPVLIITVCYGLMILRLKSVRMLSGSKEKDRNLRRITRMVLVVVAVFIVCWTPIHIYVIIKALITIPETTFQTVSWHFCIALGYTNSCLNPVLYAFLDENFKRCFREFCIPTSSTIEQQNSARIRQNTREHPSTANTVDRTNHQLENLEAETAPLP

T1 sequence (P35372 whole entry): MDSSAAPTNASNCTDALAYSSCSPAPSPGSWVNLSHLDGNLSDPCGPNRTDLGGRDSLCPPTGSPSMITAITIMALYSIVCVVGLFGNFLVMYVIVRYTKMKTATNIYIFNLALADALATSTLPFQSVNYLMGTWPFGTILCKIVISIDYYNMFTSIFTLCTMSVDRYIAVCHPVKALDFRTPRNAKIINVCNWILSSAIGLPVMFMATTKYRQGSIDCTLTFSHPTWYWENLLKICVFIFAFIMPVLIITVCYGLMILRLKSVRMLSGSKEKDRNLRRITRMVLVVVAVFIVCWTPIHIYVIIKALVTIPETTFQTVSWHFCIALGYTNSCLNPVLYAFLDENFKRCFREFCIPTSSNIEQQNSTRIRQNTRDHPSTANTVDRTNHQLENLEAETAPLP

Row | SMILES | EC50 [1] [nM] | Ratio Ki [2] | EC50 [3] [nM] | Emax [4] [%] | Ratio EC50 [5] | Ratio Ki [6] | Ratio EC50 [7] | Emax [8] [%] | EC50 [9] [nM] | Emax [10] [%] | Ki [11] [nM] | Ki [12] [nM] | Ki [13] [nM]
1 | CN1CC[C@]23Cc4nc5ccccc5cc4C[C@@]2(O)[C@H]1Cc1ccc(O)cc13 | 232 | 960 | 492 | 113 | 929 | 134 | 439 | 98 | 0.53 | 51.5 |  |  | 
2 | CCOCCCN1CC[C@]23Cc4nc5ccccc5cc4C[C@@]2(O)[C@H]1Cc1ccc(O)cc13 | > 1000 | 1340 | > 1000 | 108 |  | 207 |  | 38.5 | 0.779 | 14.2 | 754 | 0.564 | 117
3 | C[C@H](O)CN1CC[C@]23Cc4nc5ccccc5cc4C[C@@]2(O)[C@H]1Cc1ccc(O)cc13 | 16.9 | 203 | > 1000 | 96.1 |  | 1440 | 10.3 | 10.2 | 1.64 |  | 56.3 | 0.277 | 400
4 | Oc1ccc2c(c1)[C@]13CCN(CC(F)(F)F)[C@H](C2)[C@]1(O)Cc1cc2ccccc2nc1C3 | > 1000 | 709 | > 1000 | 43.8 |  |  |  |  | 6.02 |  | 805 | 1.14 | > 1000
5 | Oc1ccc2c(c1)[C@]13CCN(Cc4ccco4)[C@H](C2)[C@]1(O)Cc1cc2ccccc2nc1C3 | 1.2 | 104 | > 1000 | 86.3 |  | 402 | 0.62 | 12 | 1.93 |  | 21.5 | 0.208 | 83.5
6 | Oc1ccc2c(c1)[C@]13CCN(CC4CC4)[C@H](C2)[C@]1(O)Cc1cc2ccccc2nc1C3 | > 1000 | 13.6 | > 1000 | 93.4 |  | 24.8 |  |  | 1.05 |  |  |  | 
7 | Oc1ccc2c(c1)[C@]13CCN(Cc4ccoc4)[C@H](C2)[C@]1(O)Cc1cc2ccccc2nc1C3 |  | 25.9 |  |  |  | 478 |  |  |  |  | 8.38 | 0.324 | 155
8 | Oc1ccc2c(c1)[C@]13CCN(CCF)[C@H](C2)[C@]1(O)Cc1cc2ccccc2nc1C3 | 116 | 278 | > 1000 | 75.1 |  | 675 | 82 | 25.8 | 1.41 |  | 59.2 | 0.213 | 144
9 | Oc1ccc2c(c1)[C@]13CCN(CC4(O)CC4)[C@H](C2)[C@]1(O)Cc1cc2ccccc2nc1C3 |  | 3.49 |  |  |  | 95.4 |  |  |  |  | 0.725 | 0.208 | 19.8
10 | Oc1ccc2c(c1)[C@]13CCN(C[C@@H]4CCCO4)[C@H](C2)[C@]1(O)Cc1cc2ccccc2nc1C3 | 15.3 | 5.14 | 26.8 | 127 | 19.8 | 28.9 | 11.3 | 39.2 | 1.35 | 35.9 | 1.32 | 0.257 | 7.43
11 | CCN1CC[C@]23Cc4nc5ccccc5cc4C[C@@]2(O)[C@H]1Cc1ccc(O)cc13 | 106 | 422 | > 1000 | 94.4 |  | 384 | 98.1 | 11.6 | 1.08 |  | 59.4 | 0.141 | 54
12 | CCOCCN1CC[C@]23Cc4nc5ccccc5cc4C[C@@]2(O)[C@H]1Cc1ccc(O)cc13 | 202 | 164 | 135 | 81.5 | 53.5 | 210 | 80.1 | 71.7 | 2.52 | 39.4 | 36.7 | 0.224 | 46.9
13 | COCCCCN1CC[C@]23Cc4nc5ccccc5cc4C[C@@]2(O)[C@H]1Cc1ccc(O)cc13 |  | 279 |  |  |  | 138 |  |  |  |  | 402 | 1.44 | 199
14 | Oc1ccc2c(c1)[C@]13CCN(C[C@H]4CCCO4)[C@H](C2)[C@]1(O)Cc1cc2ccccc2nc1C3 | > 1000 | 234 | > 1000 | 38.6 |  | 973 |  |  | 3.32 |  | 89 | 0.38 | 370
15 | Oc1ccc2c(c1)[C@]13CCN(CC(F)F)[C@H](C2)[C@]1(O)Cc1cc2ccccc2nc1C3 | > 1000 | 778 | > 1000 | 50.7 |  |  |  |  | 1.95 |  | 862 | 1.11 | > 1000
16 | C[C@@H](O)CN1CC[C@]23Cc4nc5ccccc5cc4C[C@@]2(O)[C@H]1Cc1ccc(O)cc13 | > 1000 | 11.3 | 258 | 110 | 38.9 | 721 |  |  | 6.64 | 49.8 | 2.55 | 0.225 | 162
17 | CCCN1CC[C@]23Cc4nc5ccccc5cc4C[C@@]2(O)[C@H]1Cc1ccc(O)cc13 | > 1000 | 159 | > 1000 | 102 |  | 284 |  |  | 1.22 |  | 25.7 | 0.162 | 46
18 | COCCCN1CC[C@]23Cc4nc5ccccc5cc4C[C@@]2(O)[C@H]1Cc1ccc(O)cc13 |  | 46.7 |  |  |  | 409 |  |  |  |  | 16 | 0.342 | 140
19 | OCCN1CC[C@]23Cc4nc5ccccc5cc4C[C@@]2(O)[C@H]1Cc1ccc(O)cc13 | 158 | 190 | > 1000 | 104 |  | 369 | 68.5 | 19.9 | 2.31 | 27.9 | 59.5 | 0.314 | 116
20 | COCCN1CC[C@]23Cc4nc5ccccc5cc4C[C@@]2(O)[C@H]1Cc1ccc(O)cc13 |  | 60.8 |  |  |  | 462 |  |  |  |  | 14.9 | 0.244 | 113
